No end group written: not given here.
Legend:
Type in all cases: cell-based
[1] = tested on: differentiated 3T3-L1 cells; experiment: Measurement of intracellular cAMP; details: 0.5% solution at 50 ppm; 15 minutes, 30 minutes or 1 hour; compared to cells treated with isoproterenol 1 μM
Protocol: The objective of this test was to measure the variation of the intracellular concentration of cAMP in adipocytes, in order to deduce a possible activation of the phenomenon of lipolysis.
The test was carried out on differentiated 3T3-L1 cells. These adipocytes were treated with the peptide of (SEQ ID NO: 1), i.e. of sequence Pro-Leu-Asp-Thr-Ala-Lys-Val-Arg-Leu-Gln, representative of the peptide family according to the invention, placed in a 0.5% solution at 50 ppm, for periods of 15 minutes, 30 minutes, or 1 hour. In parallel, differentiated 3T3-L1 cells were also treated with isoproterenol (an agent that induces lipolysis), at 1 μM, thus forming a positive control.
After the various incubation periods, in the presence of the active ingredient being tested or in the presence of isoproterenol, the quantity of cAMP contained in adipocytes was measured using the “AMP Biotrak® EIA System” kit purchased from Amersham Biosciences as well as by a test principle, colorimetric ELISA. The kit made cell lysis possible through a solution allowing for the hydrolysis of cellular membranes and the release of intracellular cAMP in the medium. Followed by the binding of antibodies specific to intracellular cAMP extracted from samples, which is placed in competition with cAMP that has been coupled to the enzyme, peroxidase.

3T3-L1 cells = experiment: Oil red staining of lipid vacuoles of adipocytes; details: 0.5% solution at 50 ppm
Protocol: Undifferentiated 3T3-L1 preadipocyte cell lines were seeded in 8-well Lab-Tek slides (for oil red staining), in 12-well plates (for ATP measurement), in 24-well plates (for cAMP measurement) and in 6-well plates (for glycerol measurement) as well as with DMEM culture medium (4.5 g/l) containing antibiotics. These 3T3-L1 preadipocytes were capable of entering, under certain conditions, the terminal differentiation phase.
Once the 3T3-L1 cells had reached 100% confluence, they were differentiated by putting them into culture in various mediums, over a period of 6 to 8 days.
During the first 2 days, cells were cultured in the presence of IBMX, dexamethasone, and insulin diluted in DMEM culture medium at 4.5 g/l. Then, they were cultured for two days only in the presence of insulin diluted in DMEM culture medium at 4.5 g/l and, finally, the cells were cultivated for 2 to 3 days in culture medium containing exclusively DMEM 4.5 g/l.
Cell differentiation in mature adipocytes was visualized by the appearance of lipid droplets in the cytoplasm of the cells.
The principle of this evaluative test on the effect of peptides rests on a microscopic observation of the number and size of lipid vacuoles of adipocytes after staining. Adipocytes were incubated or not in the presence of the substance to be tested.
3T3-L1 cells, seeded in 8-well Lab-Teks, were treated with the peptide of SEQ ID NO:1, i.e. of sequence Pro-Leu-Asp-Thr-Ala-Lys-Val-Arg-Leu-Gln, representative of the peptide family according to the invention, placed in a 0.5% solution at 50 ppm. The active ingredient was added at various stages of culture: • At the start of the incubation and until the end of adipocyte differentiation (72 hours of culture until 100% confluence, then for the 6 days of differentiation); • 6 hours after incubation and until the end of cell differentiation (66 hours of culture until 100% confluence, then for the 6 days of differentiation); • Once cells differentiated in the adipocytes, they were treated with the active ingredient for 6, 24, or 48 hours. […]

[2] = tested on: differentiated 3T3-L1 cells; experiment: Measurement of intracellular ATP; details: 0.5% solution at 50 ppm; period up to 96 hours
Protocol: The aim of this study was to determine the influence of the peptide according to the invention on the quantity of intracellular ATP. The study was carried out using an “ATP Bioluminescence Assay HS II” kit. Differentiated 3T3-L1 cells were treated with a 0.5% solution at 50 ppm, containing the peptide of SEQ ID NO: 1, representative of the peptide family according to the invention, for a period up to 96 hours. At the end of the incubation time, the wells were emptied of their medium and were rinsed with 2 ml of cold PBS before adding 250 μl of lysis buffer, provided by the kit. The cells were then scraped, and then collected separately in 14 ml tubes. Each well was rinsed with 2×500 μl of cold PBS and everything was again collected in the respective tubes. Each tube was then placed in the polytron for 10 seconds at 18000 rpm. From these samples, a dilution of 1/12000, using cold PBS, was carried out before each reading. ATP quantity assessment was performed on these samples: 50 μl of this dilution were placed in a luma-basin and 50 μl of […] were added. The reading of luminescence started after 10 seconds. The values were standardized compared to the quantity of proteins for each sample. Measurements were taken using a Biocounter M2010A LUMAC®/3M.

[3] = tested on: differentiated 3T3-L1 cells; experiment: Measurement of glycerol released by adipocytes; details: active ingredient at 0.5% (solution at 50 ppm); 1 h 30, 3 h, 5 h, 7 h and 24 h; versus control wells
Protocol: The purpose of this study was to determine the influence of the peptide according to the invention on glycerol release by adipocytes, glycerol being the result of lipolysis.
Differentiated 3T3-L1 cells were treated with a 0.5% solution at 50 ppm, containing the peptide of SEQ ID NO:1, representative of the peptide family according to the invention, for periods of 1 h 30, 3 h, 5 h, 7 h and 24 h.
The concentration of glycerol was determined using a series of enzymatic reactions leading to the formation of NADH of which the produced quantity was evaluated by spectrophometric readings at 340 nm, the formation of NADH being proportional to the quantity of glycerol released in the culture medium. An internal control of 1 mM glycerol was also used. The values were standardized in comparison to the quantity of proteins for each sample.

[4] = added at the start of incubation or 6 hours after incubation until end of differentiation, compared with control cells

With “PLDTAKVRLQ [SEQ ID NO:1, peptide fragment from the UCP family]” as the sequence, how does the “intracellular quantity of cAMP” value [1] read?
The value was “no increase”.

And the cell morphology (3T3-L1 cells; [4])?
The cell morphology was “less round morphology”.

What about the “content of intra-adipocyte lipid vesicles” value (3T3-L1 cells; [4]) of the same sequence?
The value was “clearly decreased content of intra-adipocyte lipid vesicles”.

What about the “reduction of intra-adipocyte lipid vesicles in mature adipocytes” value (3T3-L1 cells; applied once differentiation was completed, for 6, 24 or 48 hours) of the same sequence?
Its value is “no reduction was observed”.

And the “amount of intracellular ATP” value [2]?
Its value is “lack of increase”.

And the “glycerol release by differentiated cells” value [3]?
Its value is “identical”.
